Reference: PubChem BioAssay AID651891 (Broad Institute, 2012)
The source made the active and inactive calls.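 How the source made its calls: active means IC50 below three times the IC50 of the reference antileishmanial control drug; inactive means the rest.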

System: L. donovani axenic amastigotes, Alamar blue, 72 h
Experiment: L. donovani amastigote growth inhibition, dose response, axenic amastigotes, plate reader, cherry pick (AID 651891)

SMILES: C[C@@H]1CN([C@@H](C)CO)C(=O)c2cccc(NC(=O)c3ccncc3)c2O[C@H]1CN(C)Cc1ccc(Oc2ccccc2)cc1
- IC50: 21.2 µM (inactive)
